Some test systems named below: SF-268; OVCAR-3; PC-3; HOP-62; MCF7; NCI-H226; HCT-15; NCI-H522; A498; MDA-N; SK-MEL-28; MOLT-4; MDA-MB-231; CCRF-CEM; TK-10; SF-539; OVCAR-5; HL-60; LOX IMVI; EKVX.
Assay in all cases: NCI anticancer screen, dose series, 48 h

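Grown in 96-well plates, cells were treated for 48 hours with each compound at five concentrations. Insufficient inhibition: endpoint recorded as highest concentration tested. Here, GI50 denotes the concentration required for 50% inhibition of growth.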 The source made the active and inactive calls. Cut-off read from the data, not from the text of the source: active = GI50 up to about 1.1 µM and inactive = higher. Residues, ends and D or L forms follow the SMILES beside them. *: point of attachment. Boc = CC(C)(C)OC(=O)*

On to `Oc1c(C2=NNC(c3cccs3)C2)ccc2ccccc12` (stereo not given), for which the GI50 in the assay with SF-268 was 10.9 µM (inactive); in the assay with OVCAR-3 it was 18 µM (inactive); with PC-3 it was 27 µM (inactive); with HOP-62, 26.9 µM (inactive); with MCF7, 15.6 µM (inactive); with NCI-H226, 24.9 µM (inactive). For the same molecule, the GI50 with HCT-15 is 18.2 µM; with NCI-H522 it was 21.9 µM (inactive); in the assay with A498 it was 26.2 µM (inactive); in the assay with MDA-N it was 16.5 µM (inactive); with SK-MEL-28, 36 µM (inactive); in the assay on MOLT-4, 10.1 µM (inactive). The GI50 in the assay with MDA-MB-231 was 26.1 µM (inactive); in the assay with CCRF-CEM it was 11.1 µM (inactive); with TK-10, 28.1 µM (inactive); in the assay with SF-539, 20.1 µM (inactive); in the assay with OVCAR-5, 29.6 µM (inactive).

For `Cc1cn(C2CC(COCc3ccccc3)N(CCO[Si](C)(C)C(C)(C)C)O2)c(=O)[nH]c1=O` (stereo not given), the GI50 was 21.3 µM (inactive) in the assay with SF-268; 15 µM (inactive) with OVCAR-3; 5.28 µM (inactive) with PC-3; 17.3 µM (inactive) in the assay on HOP-62; 18.5 µM (inactive) with MCF7; 16.2 µM (inactive) in the assay with NCI-H522. Besides, the GI50 in the assay with A498 is 15.2 µM (inactive); with MDA-N, 14.6 µM (inactive); in the assay on SK-MEL-28, 16.8 µM (inactive); in the assay with MOLT-4, 5.93 µM (inactive); in the assay with MDA-MB-231 it was 18.7 µM (inactive); with TK-10, 14.3 µM (inactive). The GI50 in the assay on SF-539 was 19.1 µM (inactive); in the assay with OVCAR-5, 17.7 µM (inactive).

As for `C[C@@H](c1ccccc1)N1CN(C(=O)OCc2ccccc2)C(CO)C1=O` (stereo not given in full), the GI50 with SF-268 is > 100 µM (inactive); in the assay with HL-60, > 100 µM (inactive); in the assay with OVCAR-3, > 100 µM (inactive); with PC-3 it was > 100 µM (inactive); with HOP-62 it was > 100 µM (inactive); in the assay on MCF7, 47.2 µM (inactive). Moreover, the GI50 with NCI-H226 was > 100 µM (inactive); in the assay with HCT-15, over 100 µM; in the assay with NCI-H522, > 100 µM (inactive); with LOX IMVI, > 100 µM (inactive); in the assay on MDA-N, > 100 µM (inactive); in the assay on SK-MEL-28, > 100 µM (inactive). The GI50 in the assay on MOLT-4 is > 100 µM (inactive); with MDA-MB-231, 87.3 µM (inactive); in the assay on CCRF-CEM it was 67 µM (inactive); in the assay on TK-10, > 100 µM (inactive); in the assay on SF-539, > 100 µM (inactive); in the assay with OVCAR-5, > 100 µM (inactive). In addition, the GI50 in the assay with EKVX is 71.1 µM (inactive).

Regarding `N#CCCN(CCN(CCN(C(=O)Nc1ccccc1)c1ccccc1)C(=O)Nc1ccccc1)C(=O)Nc1ccccc1`, the GI50 in the assay on SF-268 was > 100 µM (inactive); in the assay on OVCAR-3 it was > 100 µM (inactive); in the assay on PC-3, 6.85 µM (inactive); in the assay on HOP-62 it was > 100 µM (inactive); with MCF7, 24.7 µM (inactive); in the assay with NCI-H226, > 100 µM (inactive). Also, the GI50 in the assay with HCT-15 is over 100 µM; in the assay on LOX IMVI, > 100 µM (inactive); in the assay with A498 it was > 100 µM (inactive); in the assay on MDA-N, > 100 µM (inactive); in the assay with SK-MEL-28, > 100 µM (inactive); in the assay on MOLT-4 it was 4.43 µM (inactive). Moreover, the GI50 was > 100 µM (inactive) with MDA-MB-231; 1.89 µM (inactive) in the assay on CCRF-CEM; > 100 µM (inactive) in the assay with TK-10; > 100 µM (inactive) in the assay on SF-539; > 100 µM (inactive) in the assay on OVCAR-5; 54.2 µM (inactive) with EKVX.

`CN(C)c1ccc(C=C2C(=O)N(c3ccccc3)N(c3ccccc3)C2=O)cc1`: the GI50 in the assay on SF-268 is > 100 µM (inactive); in the assay with OVCAR-3, > 100 µM (inactive); in the assay on PC-3, 78 µM (inactive); in the assay with HOP-62, > 100 µM (inactive); with MCF7, > 100 µM (inactive); with NCI-H226, > 100 µM (inactive). In addition, the GI50 in the assay on HCT-15 is over 100 µM; with NCI-H522 it was > 100 µM (inactive); in the assay on LOX IMVI, 76.6 µM (inactive); in the assay on A498, > 100 µM (inactive); in the assay with MDA-N it was > 100 µM (inactive); in the assay on SK-MEL-28, > 100 µM (inactive). Besides, the GI50 with MOLT-4 is 65.6 µM (inactive); in the assay on MDA-MB-231 it was > 100 µM (inactive); with TK-10 it was > 100 µM (inactive); in the assay on OVCAR-5, > 100 µM (inactive); in the assay on EKVX it was > 100 µM (inactive).

Turning to `CSC1=NN=C(SC)NN1`, the GI50 in the assay with SF-268 is 0.189 µM (active); in the assay on HL-60, 0.0369 µM (active); in the assay with OVCAR-3, 0.185 µM (active); with PC-3, 0.166 µM (active); in the assay on HOP-62, 0.201 µM (active); with MCF7, 0.201 µM (active). The GI50 in the assay on NCI-H226 is 0.181 µM (active); in the assay on HCT-15 it was 0.169 µM; with NCI-H522, 0.214 µM (active); in the assay with LOX IMVI, 0.15 µM (active); in the assay with MDA-N it was 0.18 µM (active); in the assay with SK-MEL-28, 0.186 µM (active). The GI50 in the assay with MOLT-4 was 0.027 µM (active); in the assay with MDA-MB-231, 0.22 µM (active); with CCRF-CEM it was 0.0243 µM (active); with TK-10, 0.213 µM (active); in the assay on SF-539 it was 0.205 µM (active); with OVCAR-5 it was 0.179 µM (active). For the same molecule, in the assay with EKVX, the GI50 was 0.186 µM (active).

Turning to `CC(C)(C)OC(=O)NC(Cc1ccc(O)cc1)C(=O)NC(CCCCN)C(=O)O` (stereo not drawn) (Boc-Tyr-Lys-OH; configuration not given here), the GI50 with SF-268 is 34.6 µM (inactive); with HL-60, 23.7 µM (inactive); in the assay on OVCAR-3, 28.4 µM (inactive); in the assay with PC-3, 44.9 µM (inactive); in the assay with HOP-62, 20.6 µM (inactive); in the assay on MCF7 it was 30.4 µM (inactive). Moreover, the GI50 is 39.8 µM (inactive) in the assay on NCI-H226; over 10 µM in the assay with HCT-15; 6.41 µM (inactive) in the assay with NCI-H522; 15 µM (inactive) in the assay on LOX IMVI; 24.8 µM (inactive) in the assay with A498; 32.6 µM (inactive) with MDA-N. In addition, the GI50 is 23.8 µM (inactive) with SK-MEL-28; 32.8 µM (inactive) in the assay with MOLT-4; 21.8 µM (inactive) in the assay with MDA-MB-231; 33.4 µM (inactive) in the assay with CCRF-CEM; 37.9 µM (inactive) in the assay on TK-10; 25 µM (inactive) in the assay with OVCAR-5.

In the case of `O=C1/C(=C/c2cccnc2)SC(=S)N1Cc1ccco1`, the GI50 with SF-268 is 5.94 µM (inactive); with OVCAR-3, 3.31 µM (inactive); with PC-3 it was 3.87 µM (inactive); in the assay with HOP-62, 5.77 µM (inactive); in the assay on MCF7 it was 3.28 µM (inactive); in the assay with NCI-H226, 24.4 µM (inactive). The GI50 in the assay on HCT-15 was 3.72 µM; in the assay with NCI-H522, 1.43 µM (inactive); in the assay with LOX IMVI it was 4.16 µM (inactive); in the assay with A498 it was 24.7 µM (inactive); in the assay on MDA-N, 2.33 µM (inactive); with SK-MEL-28 it was 31 µM (inactive). For the same molecule, the GI50 in the assay with MOLT-4 is 3.08 µM (inactive); in the assay on MDA-MB-231 it was 7.08 µM (inactive); in the assay on CCRF-CEM it was 3.21 µM (inactive); with TK-10 it was 2.34 µM (inactive); with SF-539, 2.33 µM (inactive); in the assay with OVCAR-5, 36.1 µM (inactive). Also, the GI50 in the assay on EKVX was 49.5 µM (inactive).

With `COc1ccc(N2C(=O)C3c4[nH]c5cccc(Cl)c5c4C4CCC(C(C)(C)C)CC4C3C2=O)cc1` (stereo not given), the GI50 with SF-268 is 50.6 µM (inactive); in the assay on OVCAR-3, > 100 µM (inactive); in the assay on PC-3 it was > 100 µM (inactive); in the assay with HOP-62, 16.3 µM (inactive); in the assay on MCF7, > 100 µM (inactive); with NCI-H226, > 100 µM (inactive). Further, the GI50 in the assay with HCT-15 was over 100 µM; with NCI-H522, > 100 µM (inactive); in the assay with LOX IMVI it was > 100 µM (inactive); in the assay on A498, 74.1 µM (inactive); with MDA-N it was > 100 µM (inactive); in the assay with SK-MEL-28 it was > 100 µM (inactive). The GI50 is > 100 µM (inactive) with MOLT-4; > 100 µM (inactive) with MDA-MB-231; > 100 µM (inactive) with TK-10; 64.7 µM (inactive) with SF-539; > 100 µM (inactive) with OVCAR-5; > 100 µM (inactive) in the assay on EKVX.

Turning to `COC(=O)[C@@H]1N2C(=S)N(c3ccccc3)C(=O)[C@H]2SC1(C)C`, the GI50 with SF-268, in the assay with OVCAR-3, in the assay on PC-3, with HOP-62, with MCF7 and in the assay on NCI-H226 was > 100 µM (inactive) each time. Besides, the GI50 in the assay with HCT-15 is over 100 µM; in the assay with NCI-H522, > 100 µM (inactive); in the assay with A498 it was 91.4 µM (inactive); in the assay with MDA-N, > 100 µM (inactive); in the assay on SK-MEL-28, > 100 µM (inactive); in the assay on MOLT-4, > 100 µM (inactive). The GI50 with MDA-MB-231, in the assay on TK-10, in the assay on SF-539, in the assay on OVCAR-5 and in the assay with EKVX was > 100 µM (inactive) each time.

On to `CC(C)=CCC/C(C)=C\CC/C(C)=C/CO`, for which the GI50 in the assay on SF-268 was 37.2 µM (inactive); in the assay on HL-60 it was 17.1 µM (inactive); in the assay with OVCAR-3, 16.8 µM (inactive); with PC-3 it was 41.4 µM (inactive); in the assay with HOP-62, 19.6 µM (inactive); in the assay on MCF7, 19.3 µM (inactive). Also, the GI50 in the assay with NCI-H226 is 36.4 µM (inactive); with HCT-15, 40.1 µM; with NCI-H522 it was 14.2 µM (inactive); with LOX IMVI, > 10 µM (inactive); in the assay on MDA-N it was 65.6 µM (inactive); in the assay on SK-MEL-28, 44.9 µM (inactive). Further, the GI50 with MOLT-4 is 20.5 µM (inactive); with MDA-MB-231 it was 42 µM (inactive); in the assay on CCRF-CEM it was 19.5 µM (inactive); in the assay on TK-10, 25.7 µM (inactive); in the assay on SF-539, 21 µM (inactive); in the assay on OVCAR-5, > 100 µM (inactive). Besides, the GI50 with EKVX is 30.6 µM (inactive).

The record behind these values is ChEMBL document CHEMBL1201862, “PubChem BioAssay data set” (2004).
